Measured values reported in PubChem BioAssay (NCI).
Several values for one entry are separate records, joined by “and”; a condition that tells them apart may be missing. Equal entries are not always repeated.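 Five compound concentrations were applied to cells in 96-well plates for 48 hours; endpoints were derived by simple linear interpolation of the resulting dose-response curve. GI50: concentration for 50% inhibition of growth. At the TGI there is no net growth.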

Key:
Assay in all cases: growth of human tumour cells (NCI), 48 h
HCT-116 colon = system: HCT-116 colon
HOP-92 NSCLC = system: HOP-92 NSCLC
MOLT-4 leukemia = system: MOLT-4 leukemia
NCI-H226 lung = system: NCI-H226 lung
NCI-H23 lung = system: NCI-H23 lung
NCI-H522 lung = system: NCI-H522 lung
OVCAR-4 ovarian = system: OVCAR-4 ovarian
RXF 393 renal = system: RXF 393 renal
SK-MEL-2 melanoma = system: SK-MEL-2 melanoma
SK-MEL-28 melanoma = system: SK-MEL-28 melanoma

| SMILES | TGI (HCT-116 colon) | TGI (HOP-92 NSCLC) | TGI (MOLT-4 leukemia) | TGI (NCI-H226 lung) | TGI (NCI-H23 lung) | TGI (NCI-H522 lung) | TGI (OVCAR-4 ovarian) | TGI (RXF 393 renal) | TGI (SK-MEL-2 melanoma) [µM] | TGI (SK-MEL-28 melanoma) | GI50 (HCT-116 colon) | GI50 (HOP-92 NSCLC) | GI50 (MOLT-4 leukemia) | GI50 (NCI-H226 lung) | GI50 (NCI-H23 lung) | GI50 (NCI-H522 lung) | GI50 (OVCAR-4 ovarian) | GI50 (RXF 393 renal) | GI50 (SK-MEL-2 melanoma) | GI50 (SK-MEL-28 melanoma) |
| --- | --- | --- | --- | --- | --- | --- | --- | --- | --- | --- | --- | --- | --- | --- | --- | --- | --- | --- | --- | --- |
| O=C[C@@H](CO)O[C@H](C=O)c1c[nH]c(=O)[nH]c1=O | 513 µM | 237 µM | 605 µM | 552 µM | 539 µM | 282 µM | 375 µM | 163 µM | 3680 | 237 µM |  |  |  |  |  |  |  |  |  |  |
| Clc1ccc(CSC(Cn2ccnc2)c2ccc(Cl)cc2Cl)cc1 (centres undefined) | 2.51 µM | 2.44 µM | 4.87 µM | 2.84 µM | 3.6 µM | 2.48 µM | 3.16 µM | 2.76 µM | 3 | 3.06 µM | 1.26 µM | 0.914 µM | 1.72 µM | 1.38 µM | 1.5 µM | 1.13 µM | 1.37 µM | 1.43 µM | 1.52 µM | 1.69 µM |
| CN(C)CCOc1ccc(-c2nc(-c3ccc4c(c3)CC/C4=N\O)c(-c3ccncc3)[nH]2)cc1 | 7.8 µM and 6.72 µM | 4.29 µM and 24.1 µM | 12.2 µM and 25.7 µM | 9.77 µM and 17.1 µM | 7.85 µM and 25.7 µM | 9.59 µM and 21 µM | 9.74 µM and 37.8 µM | 9.58 µM and 8.17 µM |  | 3.26 µM and 1.85 µM | 3.29 µM and 1.84 µM | 0.71 µM and 1.15 µM | 5.74 µM and 3.53 µM | 4.72 µM and 8.03 µM | 3.23 µM and 3.98 µM | 3.9 µM and 5.5 µM | 4.72 µM and 6.69 µM | 4.37 µM and 4.3 µM | 0.108 µM and 0.367 µM | 0.0188 µM and 0.029 µM |
| Cc1cc2nc(C(C)C(=O)c3ccc(Cl)cc3)c(=O)[nH]c2cc1C (centres undefined) | > 100 µM | > 100 µM | > 100 µM | 95.1 µM | > 100 µM | > 100 µM | > 100 µM | > 100 µM | > 100 | > 100 µM |  |  |  |  |  |  |  |  |  |  |
| CC[C@]12CCCN3CCc4c(n(c5ccccc45)C(=O)C1)[C@@H]32 | > 49.6 µM | > 100 µM | > 58.2 µM | > 100 µM | > 100 µM | 7.2 µM | > 76.3 µM | 63.7 µM | > 100 | > 100 µM |  |  |  |  |  |  |  |  |  |  |
| CCOC(=O)c1ccc2[nH]c(-c3ccc(S(=O)(=O)F)cc3)cc(=O)c2c1 | 76.9 µM | > 100 µM | > 100 µM | > 100 µM | 47 µM | 39.4 µM | > 100 µM | > 100 µM | > 100 | > 100 µM |  |  |  |  |  |  |  |  |  |  |
| COc1ccc(-c2cc(-c3cc(Cl)ccc3Cl)nc3n[nH]c(N)c23)cc1 | 29.3 µM | > 100 µM | > 100 µM | > 100 µM | > 100 µM | 49.3 µM | > 100 µM | > 100 µM | > 100 | > 100 µM | 6.32 µM | 22.3 µM | 30.9 µM | 63.4 µM | 36.9 µM | 17.3 µM | 15.6 µM | 29.5 µM | 36.1 µM | 26 µM |
| O=C(O)CCNc1ccccc1C(=O)O | > 100 µM | > 100 µM | > 100 µM | > 100 µM | > 100 µM | > 100 µM | > 100 µM | > 100 µM | > 100 | > 100 µM |  |  |  |  |  |  |  |  |  |  |
